No end group written: not given here.
Target: T1, soluble HLA-A*02:01 from TMC expressing A375 melanoma cells (Homo sapiens, UniProt P04439, D140Y/D185E/D98H/E176V/E277Q/G131W/G231S/I119V/I121R/I166T/I218V/L300P/L318F/N151K/N90K/P208A/P217A/Q86G/Q94H/R138H/R169H/T345S)
T1 construct: TMC expressing A375 melanoma cells were transfected with soluble HLA-A*02:01(sHLA-A*02:01); expressed in transfected cells; host or cells: A375 melanoma cells expressing the MEL218 AAS tandem mini-gene construct
Test: proteomic analysis (RP-HPLC, LC/MS) of peptides eluted from soluble HLA-A*02:01
Details: A375 melanoma cells expressing MEL218 TMC
Method: To validate neoantigen processing and presentation, proteomic analysis was performed on peptides eluted from soluble HLA-A*02:01 molecules isolated from melanoma cells expressing a TMC encoding AAS candidates from patient MEL218 tumor (Sercarz, E. E., et al., Annu. Rev. Imunol., 11, 729-766, 1993; Assarsson, E., et al., J. Immunol., 178, 7890-7901, 2007). TMC expressing A375 melanoma cells were transfected with soluble HLA-A*02:01(sHLA-A*02:01) and single cell sorted for a high (>1000 ng/ml in static culture) sHLAA*02:01 producing clone. The sHLA-A*02:01 construct includes a C-terminal VLDLr epitope purification tag ([…] ID NO. 32) that is recognized by the anti-VLDLr mAb (ATCC CRL-2197). This antibody was also used for quantification of sHLA production as the capture antibody in a sandwich ELISA, with an antibody directed against β2-microglobulin (Dako Cytomation) as the detector antibody. Cells were grown in roller bottles and sHLA/peptide complexes were purified from supernatants by affinity chromatography with the anti-VLDLr antibody (Kaabinejadian, S., et al., P.L.o.S. One, 8, e66298, 2013). Eluate fractions containing sHLA/peptide complexes were brought to a final acetic acid concentration of 10%, pooled, and heated to 78° C. in a water bath. Peptides were purified through a 3 kDa molecular weight cutoff cellulose membrane (EMD Millipore) and lyophilized.
Synthetic peptides corresponding to the mutant sequences were resuspended in 10% acetic acid in water at 1 μM, and fractionated by RP-HPLC with an acetonitrile gradient in 10 mM ammonium formate at pH 10. Peptide-containing fractions were dried and resuspended in 25 ul of 10% acetic acid and subjected to nanoscale RP-HPLC at pH 2.5 utilizing an Eksigent nanoLC coupled to a TripleTOF 5600 (AB Sciex) quadrupole time-of-flight mass spectrometer (LC/MS). Information dependent acquisition (IDA) was used to obtain MS and MS/MS fragment spectra for peptide ions. The sequence of each peptide was determined by observed mass and fragment ions, and the 1st dimension fraction number and LC/MS retention times were recorded.
Next, peptides purified from TMC expressing A375 melanoma cells were resuspended in 10% acetic acid and HPLC fractionated under the same conditions and gradient method. Reverse phase HPLC was used to reduce the complexity and determine the elution profile of the pool of soluble HLA-A*02:01 restricted peptides presented by melanoma cells, as well as, the synthetic AAS peptide mixture. FIGS. 40A and 40E illustrate RP-HPLC fractionation of HLA-A*02:01 peptides eluted from the AAS-TMC expressing melanoma cell line (solid trace) and the synthetic peptide mixture containing MEL218 neoantigen candidates (dashed trace), with fraction 50 (FIG. 40A) and fraction 44 (FIG. 40E) indicated. […]

| Sequence | HLA-A*02:01 presentation by LC/MS of eluted peptides |
| --- | --- |
| MLGEQLFPL | demonstrated the HLA-A*02:01 presentation |
| IILVAVPHV | confirmed HLA-A*02:01 presentation |
